In patent US20030109570A1 (priority 2002, published 2003):
Where a name gives a salt, the structure may show the parent alone.

What was measured:
human PPARγ receptor = biological target: T1, human PPARγ receptor (Homo sapiens, UniProt P37231); assay: Luciferase assay using human PPARγ receptor (Gal4 chimera, CV-1 cells); type: cell-based; conditions: 24 h, luciferase activity of Pioglitazone at 1 μM = 100, read-out: PPARγ agonist activity, Relative activity
T1 construct: expressed in transfected cells; host or cells: CV-1 cells, pSG5-based Gal4-PPAR expression vector
T1 sequence (P37231 204-505): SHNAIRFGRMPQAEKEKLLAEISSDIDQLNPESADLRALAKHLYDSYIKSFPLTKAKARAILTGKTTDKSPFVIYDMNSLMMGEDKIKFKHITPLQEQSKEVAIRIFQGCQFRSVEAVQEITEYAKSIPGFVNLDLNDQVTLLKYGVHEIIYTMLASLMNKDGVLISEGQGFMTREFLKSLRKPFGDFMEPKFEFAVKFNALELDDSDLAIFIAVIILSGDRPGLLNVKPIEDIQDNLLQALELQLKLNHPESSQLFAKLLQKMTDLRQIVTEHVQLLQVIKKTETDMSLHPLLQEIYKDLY
Protocol: (§1) 1) Materials for a Luciferase Assay Using Human PPARα and γ
(§2) The entire procedure was conducted using a usual yeast one- or two-hybrid system according to a basic genetic engineering process.
(§3) pGL2-UAS5-TK-luc was prepared as a reporter plasmid having a response sequence of the Gal4 protein as an yeast basic transcription factor and a luciferase gene (luc) under the control by an enhancer sequence with five times repeats of UAS and the thymidine kinase (TK) promoter promoter.
(§4) A vector expressing a chimera receptor in which a ligand binding region in an intranuclear receptor human PPARα or γ receptor was fused to the […] terminus in the DNA binding region of the yeast Gal4 protein was prepared as follows. Specifically, using pSG5 (trade name, STRATAGENE, Catalogue No.216201) as a basic expression vector, the structural gene was replaced with that of a chimera receptor.
(§5) A DNA encoding the ligand binding region in human PPARα or γ receptor was inserted downstream of the DNA binding region in the Gal4 protein, i.e., the DNA encoding the 1st to 147th amino acid sequence such that the frames were aligned and it was inserted downstream of the promoter-enhancer region in pSG5 (trade name). For localizing the expressed chimera receptor in the nucleus, the DNA sequence was constructed such that a nuclear transition signal derived from SV-40T antigen, Ala Pro Lys Lys Lys Arg Lys Val Gly (SEQ ID NO. 4) was present at the amino terminus of the ligand binding region in the human PPARα or γ receptor.
(§6) As the structural gene segment for a ligand binding region in the human PPARα or γ receptor, a DNA was used which encoded:
human PPARγ ligand binding region: Ser^176-Tyr^478
which correspond to Ser^204-Tyr^506 in the human PPARγ 1 receptor and PPARγ 2 receptor and thus have the same base sequence, from structural comparison for human PPAR receptors described in R. Mukherjee et al., J. Steroid Biochem. Molec. Biol., Vol. 51, p.157 (1994); M. E. Green et al. (Gene Expression., Vol.4, p.281 (1995). For monitoring an effect on basic transcription, was also prepared an expression vector having encoding only the DNA binding region of the Gal4 protein lacking the PPAR ligand binding region, the 1st to 147th amino acid sequence and a nuclear transition signal for SV-40T-antigen.
(§7) 2) Luciferase Assay Using the Human PPARα or γ Receptor
(§8) CV-1 cells used as a host cell were cultured as usual. Specifically, a fetal calf serum (Intergen, Catalogue No.1020-90) was added to the Dulbecco modified eagle medium (DMEM) to the final concentration of 10%, and penicillin G and streptomycin sulfate were then added to the final concentrations of 50 U/mL and 50 μg/mL, respectively. In the medium, the cells were cultured at 37° C. under 5% carbon dioxide.
(§9) The day before transfection, the cells were inoculated in a 24 well plate at 1.5×10^5 cells/well in advance. LipofectAMINE (trade name, GIBCOBRL, Catalogue No.26300-61) was used for transfection. Specifically, for each well, in 40 μL of a serum-free medium Opti-MEM (trade name, GIBCOBRL, Catalogue No.31985-070) were well mixed 100 ng of a reporter plasmid, 12.5 ng of Gal4-PPAR expression vector, 200 ng of pRL-TK (trade name) as an internal control, 287.5 ng of pGEM-3Zf(+) (trade name, PROMEGA, Catalogue No. P2271) as a carrier DNA and 2.6 μL of LipofectAMINE (trade name, GIBCOBRL, Catalogue No.26300-61). To the mixture was added 170.2 μL of Opti-MEM (trade name). After washing with PBS (Phosphate Buffered Saline) and Opti-MEM (trade name), the mixture was added to the above cells. After culturing at 37° C. for 16 hours, the medium was replaced with DMEM-10% charcoal-[…] treated fetal calf serum (trade name, HyClone, Catalogue No. SH30068.03) containing a compound of this invention. After culturing at 37° C. for 24 hours, the cells were lysed and determined for its luciferase activity as usual.

human PPARα receptor = biological target: T2, human PPARα receptor (Homo sapiens, UniProt Q07869); assay: Luciferase assay using human PPARα receptor (Gal4 chimera, CV-1 cells); type: cell-based; conditions: 24 h, luciferase activity of Wy-14.643 at 10 μM = 100, read-out: PPARα agonist activity, Relative activity
T2 construct: and; expressed in transfected cells; host or cells: CV-1 cells, pSG5-based Gal4-PPAR expression vector
T2 sequence (Q07869 167-468): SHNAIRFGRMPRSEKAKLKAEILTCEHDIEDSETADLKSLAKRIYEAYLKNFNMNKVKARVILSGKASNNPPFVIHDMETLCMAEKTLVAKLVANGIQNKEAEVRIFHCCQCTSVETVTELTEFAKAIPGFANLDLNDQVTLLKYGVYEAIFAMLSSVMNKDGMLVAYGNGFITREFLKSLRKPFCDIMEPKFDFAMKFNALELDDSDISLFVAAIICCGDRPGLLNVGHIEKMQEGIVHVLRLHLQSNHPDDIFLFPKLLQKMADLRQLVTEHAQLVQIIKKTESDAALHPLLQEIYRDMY
Protocol: as §1, §2, §3, §4, §5, §6
human PPARα ligand binding region: Ser^167-Tyr^468; and
as §7, §8, §9

KKAy mouse = assay: Hypoglycemic and hypolipidemic effects using a diabetic model mouse (KKAy mouse); type: in vivo; conditions: KKAy mice, 30 mg/kg orally once daily for four days, fifth day vs first day; for Reduction rate of a free fatty acid level / Reduction rate of a triglyceride level: plasma
Protocol: Type II diabetic mice “KK-Ay/Ta Jci” (male, Nippon Clare, 10 weeks, five per a group) in each cage were used. In the morning of the initial day of the study, blood was collected from an orbital vein. A glucose level was determined using a new blood sugar test (Boehringer Mannheim) for a centrifuge supernatant after deproteination of the blood with perchloric acid. The blood was centrifuged to prepare a plasma. Then, a triglyceride and a free fatty acid levels in the plasma were determined using Triglyceride E-Test Wako and NEFA-C Test Wako (Wako Pure Chemicals, Inc.), respectively. […] On the fifth day of the study, a blood was collected for determination of a blood glucose level, a triglyceride level and a free fatty acid level. A group to which only 0.5% aqueous CMC solution was administered was used as a control group while a group to which pioglytazone was administered was used as a positive control. A reduction rate for a parameter in each group was calculated using the following equation.

Structure (SMILES)	Emax at 0.1 µM (human PPARγ receptor) [%]	Emax at 1 µM (human PPARγ receptor) [%]	Emax at 10 µM (human PPARγ receptor) [%]	Emax at 0.1 µM (human PPARα receptor) [%]	Emax at 1 µM (human PPARα receptor) [%]	Emax at 10 µM (human PPARα receptor) [%]	Reduction rate of a blood glucose level (KKAy mouse) [%]	Reduction rate of a free fatty acid level (KKAy mouse) [%]	Reduction rate of a triglyceride level (KKAy mouse) [%]
COc1cc2cc(CC(C)(Oc3ccc(C(C)C)cc3)C(=O)O)sc2cc1OC (stereo not drawn) [Example 3, 3-(5,6-dimethoxybenzothiophen-2-yl)-2-(4-isopropylphenoxy)-2-methylpropanoic Acid]	9.5	86.7	86.1	13.2	116	111			
CC(Cc1cc2ccccc2s1)(C(=O)O)C(=O)N1CCOCC1 (stereo not drawn) [Example 11, 2-(benzothiophen-2-yl)methyl-2-methylmalonic Acid N-morpholinoamide]	0.3	0.3	0.3	0.1	0.2	0.3			
CC(C)c1ccc(NC(=O)C(C)(Cc2cc3ccccc3s2)C(=O)O)cc1 (stereo not drawn) [Example 12, 2-(benzothiophen-2-yl)methyl-2-methylmalonic Acid N-(4-isopropylphenyl)amide]	0.3	0.3	0.5	0.2	0.2	0.2			
COc1cc2cc(CC(C)(Oc3ccc(C#N)cc3)C(=O)O)sc2cc1OC (stereo not drawn) [Example 2]	17.8	81.9	78.7	0.1	0.1	66.4			
CCOC(=O)C(C)(Cc1cc2cc(OC)c(OC)cc2s1)Oc1ccc(C#N)cc1 (stereo not drawn) [Example 1]	0.4	3.2	81.5	0.2	0.2	0.5			
CC(Cc1cc2ccccc2s1)(C(=O)O)C(=O)NC1CCCCC1 (stereo not drawn) [Example 10, 2-(benzothiophen-2-yl)methyl-2-methylmalonic Acid N-cyclohexylamide]	1.2	2.1	31.2	0.1	0.1	20.7			
CCOC(=O)C(C)(Cc1cc2ccccc2s1)C(N)=O (stereo not drawn) [Example 8, 2-(benzothiophen-2-yl)methyl-2-methylmalonamide Ethyl Ester]	0.3	0.3	0.3	0.1	0.1	0.2			
COc1cc2sc(/C=C(\Oc3ccc(C(C)C)cc3)C(=O)O)cc2c(Cl)c1OC [Example 6, (Z)-3-(4-chloro-5,6-dimethoxybenzothiophen-2-yl)-2-(4-isopropylphenoxy)propenoic Acid]	1.2	19	60.1	0.1	0.1	0.1			
CCc1ccc(CCOc2ccc(CC3SC(=O)NC3=O)cc2)nc1 (stereo not drawn) [Pioglytazone, Pioglitazone, reference compound]							28	49	60
CCCCNC(=O)C(C)(Cc1cc2cc(OC)c(OC)cc2s1)Oc1ccc(C#N)cc1 (stereo not drawn) [Example 16]	0.4	0.4	0.3	0.2	0.2	0.1			
COc1cc2cc(CC(C)(Oc3ccc(C#N)cc3)C(N)=O)sc2cc1OC (stereo not drawn) [Example 15]	0.5	0.4	1.1	0.2	0.2	0.1			
COc1cc2sc(CC(C)(Oc3ccc(C(C)C)cc3)C(=O)O)cc2c(Cl)c1OC (stereo not drawn) [Example 4, 3-(4-chloro-5,6-dimethoxybenzothiophen-2-yl)-2-(4-isopropylphenoxy)-2-methylpropanoic Acid]	8	68	69.9	0.3	2.9	249	58	69	85
COc1cc2cc(CC(C)(Oc3ccc(C(=N)N4CCOCC4)cc3)C(=O)O)sc2cc1OC (stereo not drawn) [Example 5, 3-(5,6-dimethoxybenzothiophen-2-yl) -2-methyl-2-(4-morpholinoamidinophenoxy)propanoic Acid Hydrochloride]	0.3	0.3	3.1	0.2	0.3	0.7			
COc1cc2cc(CC(C)(C(=O)O)C(=O)NC3CCCCC3)sc2cc1OC (stereo not drawn) [Example 14, 2-(5,6-dimethoxybenzothiophen-2-yl)methyl-2-methylmalonic Acid N-cyclohexylamide]	0.3	0.3	0.5	0.2	0.2	0.6			
